From ChEMBL document CHEMBL1130598, “Pyrroles and other heterocycles as inhibitors of p38 kinase” (Bioorg Med Chem Lett, 1998)

Columns and labels:
[1] = target: Mitogen-activated protein kinase 14 (Rattus norvegicus, UniProt P70618); assay: Inhibitory potency evaluated against rat p38 kinase
[2] = target: MAP kinase p38 (Homo sapiens) (UniProt O15264+Q15759+Q16539+P53778); assay: Inhibition of p38 MAP kinase; format: protein assay
[3] = species on record: Rattus norvegicus; assay: Inhibition of secondary paw swelling in rat adjuvant arthritis model […]; format: functional
[4] = species on record: Rattus norvegicus; assay: Inhibition of secondary paw swelling in rat adjuvant arthritis model; format: functional; details: Rattus norvegicus; read-out: ID50 (the source's name)
[5] = test system: Rattus norvegicus; assay: Inhibition of secondary paw swelling in rat adjuvant arthritis model at 80 mg/kg b.i.d.; format: functional; details: intraduodenal
[6] = target: Mitogen-activated protein kinase 8 (Homo sapiens, UniProt P45983); assay: Inhibition of c-Jun N-terminal kinase 1-alpha 1 at 5 uM
Chain of Mitogen-activated protein kinase 8 (P45983 whole entry): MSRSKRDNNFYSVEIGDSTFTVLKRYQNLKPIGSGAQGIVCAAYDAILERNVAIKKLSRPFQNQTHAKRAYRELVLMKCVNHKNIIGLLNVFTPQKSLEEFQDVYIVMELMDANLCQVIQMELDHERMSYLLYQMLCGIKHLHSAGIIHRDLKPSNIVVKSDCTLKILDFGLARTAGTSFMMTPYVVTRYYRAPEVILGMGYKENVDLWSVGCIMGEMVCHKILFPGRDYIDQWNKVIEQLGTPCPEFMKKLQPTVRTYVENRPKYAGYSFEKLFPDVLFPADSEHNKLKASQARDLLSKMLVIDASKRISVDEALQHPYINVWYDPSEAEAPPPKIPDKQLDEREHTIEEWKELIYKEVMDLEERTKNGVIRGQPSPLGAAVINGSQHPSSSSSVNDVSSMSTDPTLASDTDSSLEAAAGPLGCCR

Chain of Mitogen-activated protein kinase 14 (P70618 whole entry): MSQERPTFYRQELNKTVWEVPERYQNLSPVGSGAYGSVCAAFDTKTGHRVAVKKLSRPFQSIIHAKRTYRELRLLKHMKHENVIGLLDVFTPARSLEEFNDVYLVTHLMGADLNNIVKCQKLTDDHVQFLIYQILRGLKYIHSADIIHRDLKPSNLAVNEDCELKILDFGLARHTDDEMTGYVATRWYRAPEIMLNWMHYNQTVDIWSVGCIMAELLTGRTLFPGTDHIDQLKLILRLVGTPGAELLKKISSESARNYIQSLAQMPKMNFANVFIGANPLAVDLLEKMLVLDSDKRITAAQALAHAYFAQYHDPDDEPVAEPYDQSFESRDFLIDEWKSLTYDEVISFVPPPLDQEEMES

| Structure (SMILES) | IC50 [1] | also measured |
| --- | --- | --- |
| Fc1ccc(-c2cc(-c3ccc(Cl)cc3)oc2-c2ccncc2)cc1 | 530 nM | – |
| CSc1ccc(-c2cc(-c3ccncc3)c(-c3ccc(F)cc3)[nH]2)cc1 | 44 nM | – |
| O=C(CCN1CCCCC1)Nc1ccc(-c2cc(-c3ccncc3)c(-c3ccccc3)[nH]2)cc1 | 390 nM | – |
| Cc1cc(-c2cc(-c3ccc([S+](C)[O-])cc3)[nH]c2-c2ccc(F)cc2)ccn1 (stereo unspecified) | 6 nM | – |
| Clc1ccc(-c2[nH]c(-c3ccccc3)cc2-c2ccncc2)cc1 | 18 nM | – |
| Oc1ccc(-c2[nH]c(-c3ccccc3)cc2-c2ccncc2)cc1 | 2400 nM | – |
| c1ccc(-c2cc(-c3ccncc3)c(-c3ccncc3)[nH]2)cc1 | 1220 nM | – |
| O=C(NCCN1CCCCC1)c1ccc(-c2cc(-c3ccncc3)c(-c3ccccc3)[nH]2)cc1 | 97 nM | – |
| Fc1ccccc1-c1cc(-c2ccncc2)c(-c2ccccc2)[nH]1 | 34 nM | – |
| Fc1ccc(-c2[nH]c(-c3ccccc3)cc2-c2ccccc2)cc1 | – | inhibition [2]: 79% |
| Oc1c(-c2ccncc2)c(-c2ccc(F)cc2)nn1-c1ccc(Cl)cc1 | 500 nM | Inhibition [3]: 43% |
| N#Cc1ccc(-c2[nH]c(-c3ccccc3)cc2-c2ccncc2)cc1 | 450 nM | – |
| Fc1ccc(-c2[nH]c(-c3ccc(Br)cc3)cc2-c2ccncc2)cc1 | 100 nM | – |
| Clc1ccccc1-c1[nH]c(-c2ccccc2)cc1-c1ccncc1 | 500 nM | – |
| Fc1ccc(-c2nc(-c3ccc(Cl)cc3)[nH]c2-c2ccncc2)cc1 | 80 nM | – |
| CCOC(=O)c1ccc(-c2[nH]c(-c3ccccc3)cc2-c2ccncc2)cc1 | > 10000 nM | – |
| Cc1cnccc1-c1cc(-c2ccc([S+](C)[O-])cc2)[nH]c1-c1ccc(F)cc1 (stereo unspecified) | 260 nM | – |
| Fc1ccc(-c2[nH]c(-c3ccccc3)cc2-c2ccncc2)cc1F | 4.4 nM | – |
| c1ccc(-c2cc(-c3ccncc3)c(-c3ccoc3)[nH]2)cc1 | 660 nM | – |
| COc1ccc(OC)c(-c2cc(-c3ccncc3)c(-c3ccccc3)[nH]2)c1 | 5000 nM | – |
| C[S+]([O-])c1ccc(-n2nc(-c3ccncc3)c(-c3ccc(F)cc3)c2O)cc1 (stereo unspecified) | 83 nM | – |
| Fc1ccc(-c2[nH]c(-c3ccccc3)cc2-c2ccncc2)c(F)c1 | 29 nM | – |
| O=C(O)c1ccc(-c2cc(-c3ccncc3)c(-c3ccccc3)[nH]2)cc1 | 14 nM | – |
| C[S+]([O-])c1ccc(-c2nc(-c3ccc(F)cc3)c(-c3ccncc3)[nH]2)cc1 (stereo unspecified) [SB-203580] | – | ED50 [4]: 80 mg/kg/day; inhibition in vivo at 80 mg/kg [5]: 74%; inhibition [6]: 50% |
| c1ccc(-c2cc(-c3ccncc3)c(-c3ccccn3)[nH]2)cc1 | 2300 nM | – |
| FC(F)(F)c1ccc(-c2[nH]c(-c3ccccc3)cc2-c2ccncc2)cc1 | 910 nM | – |
| COc1ccc(OC)c(-c2cc(-c3ccncc3)c(-c3ccc(F)cc3)[nH]2)c1 | 1700 nM | – |
| COc1ccc(-c2cc(-c3ccncc3)c(-c3ccccc3)[nH]2)cc1 | 280 nM | – |
